Test results from patent US6916802B2, “Amino ceramide-like compounds and therapeutic methods of use” (Genzyme Corporation, priority 2002, dated 2005).
pIC50: −log10 of the molar value. Several values for one entry are separate records, joined by “and”; a condition that tells them apart may be missing. Equal values may be shown once. Marks after values point to notes of the source that are not given here.

Columns and labels:
[1] = tested on: GlcCer synthase of MDCK cell homogenates; assay: Inhibition of ceramide glucosyltransferase (GlcCer synthase) of MDCK cell homogenates; type: biochemical, canine; conditions: for Inhibition at 5 μM: 5 μM inhibitor; for Inhibition at 5 μM / % Inhibition at 80 μM: triplicate ± SD, samples partly isomer mixtures; for % Inhibition at 80 μM: 80 μM inhibitor
Description: Assay of sphingolipid enzymes. The inhibitors were evaluated for their effectiveness against the GlcCer synthase of MDCK cell homogenates by incubation in a thermostatted ultrasonic bath (Radin N. S. et al., “Ultrasonic Baths as Substitutes for Shaking Incubator Baths,” Enzyme, 45:67-70 (1991)) with octanoyl sphingosine and uridinediphospho[^3H]glucose (Shukla, G. S. et al., “Glucosylceramide Synthase of Mouse Kidney: Further Characterization and Improved Assay Method,” Arch. Biochem. Biophys., 283:372-378 (1990)). The lipoidal substrate (85 μg) was added in liposomes made from 0.57 mg dioleoylphosphatidylcholine and 0.1 mg of Na sulfatide. Confluent cells were washed, then homogenized with a micro-tip sonicator at 0° C. for 3×30 sec; ˜0.2 mg of protein was used in each assay tube. In the case of the aromatic inhibitors, the test compound was simply evaporated to dryness from solution in the incubation tube. […] The aliphatic inhibitors, which appeared to be less soluble in water, were added as part of the substrate liposomes.

[2] = tested on: 9L brain gliosarcoma cells; assay: Tumor cell growth in vitro (sulforhodamine B), 9L; type: cell-based
Description: Growth of cell lines. Comparisons of different inhibitors with regard to suppression of human cancer cell growth were made by the University of Michigan Cancer Center in vitro Drug Evaluation Core Laboratory. MCF-7 breast carcinoma cells, HT-29 colon adenocarcinoma cells, H-460 lung large cell carcinoma cells, and 9L brain gliosarcoma cells were grown in RPMI 1640 medium with 5% fetal bovine serum, 2 mM glutamine, 50 units/ml of penicillin, […] of streptomycin, and 0.1 mg/ml of neomycin. UMSCC-10A head and neck squamous carcinoma cells were grown in minimal essential medium with Earle salts and the same supplements. Medium components were from Sigma Chemical Co. Cells were plated in 96-well microtiter plates (1000 cells/well for H-460 and 9L cells, and 2000 cells/well for the other lines), and the test compounds were added 1 day later. The stock inhibitor solutions, 2 mM in 2 mM BSA, were diluted with different amounts of additional 2 mM BSA, then each solution was diluted 500-fold with growth medium to obtain the final concentrations indicated in the Figures and Tables.
Five days after plating the H-460 and 9L cells, or 6 days for the other lines, cell growth was evaluated by staining the adhering cells with sulforhodamine B and measuring the absorbance at 520 nm (Skehan, P. et al., “New Colorimetric Cytotoxicity Assay for Anticancer-Drug Screening,” J. Natl. Cancer Inst., 82:1107-1112 (1990)). The absorbance of the treated cultures is reported as percent of that of control cultures, to provide an estimate of the fraction of the cells that survived, or of inhibition of growth rate.

Row | SMILES | % Inhibition at 80 μM [1] | also measured
1 | CCCCCCCCCCCCCCCC(=O)NC(CN1CCOCC1)C(O)c1ccc(OC)cc1 (mixture of isomers) [BML-125] |  | Inhibition at 5 μM [1]: 9 ± 3.0^e %
2 | CCCCCCCCCCCCCCCC(=O)NC(CN(CC)CC)C(O)c1ccccc1 (mixture of isomers) [BML-114] | 31 ± 2.9^a % | activity against GlcCer synthase, in words [1]: little or no activity
3 | CCCCCCCCCCCCCCCC(=O)NC(CN)C(O)c1ccccc1 (mixture of isomers) [BML-124] | −2 ± 1.6^d % | activity against GlcCer synthase, in words [1]: little or no activity
4 | CCCCCCCCCCCCCCCC(=O)NC(CN1CCOCC1)C(O)c1ccccc1 (stereo not drawn) [PPMP, reference compound] |  | Inhibition at 5 μM ([1]; 5 µM): 32 ± 1.8^e % and 32 ± 0.7^f %; effectiveness on growth and survival of 9L cells, in words ([2]; FIG. 1): relatively weak effectiveness
5 | CCCCCCCCCCCCCCCC(=O)NC(CN1CCCCCC1)C(O)c1ccccc1 (mixture of isomers) [BML-116] | 28 ± 3.2^a % | 
6 | CCCCCCCCCCCCCCCC(=O)NC(CN(C)CCO)C(O)c1ccccc1 (mixture of isomers) [BML-122] | 58 ± 1.6^d % | 
7 | CCCCCCCCCC(=O)NC(CN1CCOCC1)C(O)c1ccc(F)cc1 (mixture of isomers) [BML-117] | 35 ± 0.6^b % | 
8 | CCCCCCCCCCCCCCCC(=O)NC(CN1CCCC1)C(O)c1ccc(OC)cc1 (mixture of isomers) [BML-126] | 60 ± 1.8^e % | Inhibition at 5 μM [1]: 54 ± 0.3^f %; pIC50 ([2]; 9L, rounded off to one digit, read-out: Inhibition of tumor cell growth in vitro, IC50): 5.70
9 | CCCCCCCCCCCCCCCC(=O)NC(CN1CCOCC1)C(O)c1ccc(F)cc1 (mixture of isomers) [BML-113] | 60 ± 4.7^a % | 
10 | CCCCCCCCCCCCCCCC(=O)NC(CN1CCN(C)CC1)C(O)c1ccccc1 (mixture of isomers) [BML-120] | 11 ± 3.0^c % | 
